Where two headings read alike, the source gives them in different places.
Experiments:
[1] = Experimental: Shed snakeskin, which is a model membrane to human skin used for preliminary permeability studies due to its similarity in composition to the human stratum corneum, was used as a skin model. The solution in the receiver compartment was maintained at 37° C. and stirred at 500 rpm with a magnetic stirrer. Before each experiment, the shed snakeskin was hydrated in 7.4 pH Dulbecco's Phosphate Buffered Saline (DPBS) containing 0.1% sodium azide solution for 24 hours at room temperature.
To emulate the esterase activity of human skin, a “sandwich” of shed snakeskin from a black rat snake (Pantherophis obsoletus) and a dialysis membrane with a molecular weight cut-off of 3.5 kDa (Cole-Palmer, Spectra Por S/P 3 EW-02900-04) was designed. Recombinant Human Carboxylesterase 2/CES2 (R&D Systems, #5657-CE) at a concentration 50 μg/mL was added between the snakeskin and the dialysis membrane (FIG. 1). A diffusion area of 0.64 cm^2 and a volume of 2 mL in the donor and receiver compartments were used. The temperature in Franz cell was controlled via thermocouple probe IT-23 (World Precision Instruments, Sarasota, FL, USA) placed in receiver compartment below the membrane “sandwich” through the sampling arm. All tested compounds were solubilized in 50% polyethylene glycol 400 (PEG 400)/DPBS at 25 mg/mL. PEG 400 was used to increase the water solubility of diethyl cromoglycate, cetirizine ethyl ester and cetirizine cromoglycate.
The system was allowed to equilibrate for one hour before each experiment. […] The receiver compartment was filled with 2 mL of 50% w/w polyethylene glycol 400 in DPBS to maintain a sink condition in the receiver solution. A sample was manually taken at 1-hour intervals from the receptor compartment and replaced with fresh DPBS at each time point. The concentration of drugs and their cumulative amount was plotted against time. Each experiment with each compound was performed in triplicate. The amount of the drug in the sample was estimated spectrophotometrically (NanoDrop™ UV-Visible spectrophotometer, Thermo Fisher Scientific Inc.). Light absorption was plotted as a function of concentration and fitted with a linear regression equation.

[2] = normal pH of 7.4; cited from earlier work
[3] = black rat snake (Pantherophis obsoletus), 0 h, 25 mg/mL
[4] = black rat snake (Pantherophis obsoletus), 25 mg/mL
[5] = black rat snake (Pantherophis obsoletus), 1 h, 25 mg/mL
[6] = black rat snake (Pantherophis obsoletus), 2 h, 25 mg/mL
[7] = black rat snake (Pantherophis obsoletus), 3 h, 25 mg/mL
[8] = black rat snake (Pantherophis obsoletus), 4 h, 25 mg/mL
[9] = black rat snake (Pantherophis obsoletus), 5 h, 25 mg/mL
[10] = black rat snake (Pantherophis obsoletus), 6 h, 25 mg/mL
[11] = black rat snake (Pantherophis obsoletus), 7 h, 25 mg/mL
[12] = black rat snake (Pantherophis obsoletus), 8 h, 25 mg/mL
[13] = black rat snake (Pantherophis obsoletus), 9 h, 25 mg/mL
[14] = black rat snake (Pantherophis obsoletus), 10 h, 25 mg/mL
[15] = black rat snake (Pantherophis obsoletus), 11 h, 25 mg/mL
[16] = black rat snake (Pantherophis obsoletus), 12 h, 25 mg/mL

Row | SMILES | mean lag times across shed snakeskin [1] [h] | logP [2] | Cumulative concentration per unit area [1, 3] [μg/cm^2] | permeation across the shed snakeskin, times lower than the permeation of the lipophilic prodrug [1, 4] | Cumulative concentration per unit area [1, 5] [μg/cm^2] | Cumulative concentration per unit area [1, 6] [μg/cm^2] | Cumulative concentration per unit area [1, 7] [μg/cm^2] | Cumulative concentration per unit area [1, 8] [μg/cm^2] | Cumulative concentration per unit area [1, 9] [μg/cm^2] | Cumulative concentration per unit area [1, 10] [μg/cm^2] | Cumulative concentration per unit area [1, 11] [μg/cm^2] | Cumulative concentration per unit area [1, 12] [μg/cm^2] | Cumulative concentration per unit area [1, 13] [μg/cm^2] | Cumulative concentration per unit area [1, 14] [μg/cm^2] | Cumulative concentration per unit area [1, 15] [μg/cm^2] | Cumulative concentration per unit area [1, 16] [μg/cm^2] | transport compared with the permeation of lipophilic prodrugs diethyl cromoglycate and cetirizine ethyl ester [1] | mean lag times across shed snakeskin [1, 4] [h]
1 | CCOC(=O)COCCN1CCN(C(c2ccccc2)c2ccc(Cl)cc2)CC1 (stereo not drawn) [Cetirizine Ethyl Ester, reference compound] | 0.15 to 0.25 |  |  |  |  |  |  |  |  |  |  |  |  |  |  |  |  | 
2 | O=C(O)c1cc(=O)c2c(OCC(O)COc3cccc4oc(C(=O)O)cc(=O)c34)cccc2o1 [Cromoglicate Sodium, Cromoglicate sodium, reference compound] |  | −4.8 | 0 | 3.5-5 times | 5 | 15 | 25 | 30 | 45 | 50 | 73 | 80 | 93 | 98 | 112 | 119 |  | 
3 | O=C(COCCN1CCN(C(c2ccccc2)c2ccc(Cl)cc2)CC1)OC(COc1cccc2oc(C(=O)O)cc(=O)c12)COc1cccc2oc(C(=O)O)cc(=O)c12 (stereo not drawn) [Example 3] |  |  | 0 |  | 2 | 12 | 28 | 53 | 89 | 112 | 142 | 176 | 215 | 256 | 295 | 350 | lower | 0.55 to 1.15
4 | CCOC(=O)c1cc(=O)c2c(OCC(O)COc3cccc4oc(C(=O)OCC)cc(=O)c34)cccc2o1 [Example 50, Diethyl Cromoglicate] |  |  | 0 |  | 23 | 55 | 95 | 145 | 195 | 235 | 256 | 320 | 390 | 435 | 470 | 495 |  | 0.15 to 0.25

— patent US20250269041A1, “Mutual Prodrugs of Cromoglicic Acid” (Samdolite Pharmaceuticals, Inc., priority 2022, published 2025)
